Like-named read-outs stand apart in the source and are kept apart here.
Experiments:
[1] = test system: DENV2 replicon cells; test: DENV2 replicon cells from HuH-7, BHK-21 and A549 backgrounds, range; assay type: cell-based; details: Dengue virus, range across cell backgrounds
[2] = in vitro; assay type: cell-based
Description: (§1) A549, BHK-21 and Huh7 cells bearing stable DENV2 sub-genomic replicon or transiently electroporated DENV2-NGC replicon or infectious virus cDNAs were seeded into 384-well microplate (3,000 cells per well). After over-night incubation at 37°C with 5% CO2, the cells were treated with 2-fold serially diluted compounds, starting from 20 or 50 μM. At 48 hr of post-incubation, renilla luciferase activities were measured with the ViviRen live-cell substrate (Promega, USA) according to the manufacturer’s protocol. CellTiter-Glo reagent (Promega, USA) was then added to determine cytotoxic effects of compounds. For the HCV replicon assay, Huh-7.5 cells harboring the HCV replicon were seeded into a 96-well microplate (20,000 cells per well). At 48 hr after compound treatment, cells were assayed for firefly luciferase activity by using a Bright-Glo luciferase assay (Promega, USA). NITD-008, a nucleoside inhibitor of DENV and HCV was added as a control.

[3] = test system: DENV2-NGC Ren-LUC Replicon in HuH-7; test: Stable HuH-7 DENV2-NGC renilla luciferase replicon assay; assay type: cell-based; details: read-out: HuH-7 DENV Replicon, DENV2, EC50
[4] = test system: DENV2-NGC Ren-LUC Replicon in A549; test: Stable A549 DENV2-NGC renilla luciferase replicon assay; assay type: cell-based; details: Dengue virus, 48 hr
Description: as §1
1 containing 2 % FBS, 1mM L-glutamine and 1 % penicillin-streptom ycin and incubated over-
At 24 h post-seeding, cells were inf ected with DENV1-4 at
3 multiplicity of infection [MOI] of 0.3-1 (DENV1, strain MY97- 10245, MOI = 0.5; DENV2,
5 MY01-22713; MOI = 0.5) and treated immediatel y with 10- point, 3-fold serially diluted
6 compounds (at final 0.5% DMSO concent ration; 4). At 48 h post-infection , cells wer e fix ed
8 DENV envelope protein ) and DRAQ5 (for nucl ear DNA) . Quantifications of DENV
9 envelope protein were determined using the Opera high content imaging s ystem and anal ysis
10 software (Perkin Elmer, USA). Calculation of EC50 values were perfo rmed using Helios
11 software p ackage (Nov ar tis, Basel).
13 Compound testing in DENV2 and HCV sub -genomic replicon assays. A549, BHK -21 and
14 Huh7 DENV2 sub- geno mic replicon cells were seed ed at a d ensit y o f 3,000 cells per w ell
15 in a 384-well microplate. After incubation at 37 °C with 5 % CO2 overnight, the cells were […]
17 µM concentrations. At 48 hr of post-incubation, r enilla luciferas e activities were measured […]

[5] = target: DENV4 RdRp (Dengue virus type 4, UniProt P09866); test: Surface plasmon resonance binding assay (Biacore T200)
Description: Biotinylated DENV3 and DENV4 RdRp were captured on flow cells 2 and 4 respectively in 50 mM Tris/HCl, pH 7.5, 200 mM NaCl, 2 mM DTT, 0.05% Tween 20, and 3% DMSO at 4°C. Flow cell 1 and 3 were left blank to serve as a reference [37]. […] Compounds were injected at a flow rate of 30 μL/min, with 45 s contact time and 600 s dissociation, starting from the DMSO control and finishing with the highest concentration.

[6] = test system: DENV3 strain MY05-34640; details: A549; 48 hr; read-out: DENV3 HCI, EC50 (converted); cited from earlier work
[7] = test system: clinical DENV2 isolate MY97-10340; details: A549, 48 hr, read-out: DENV2 HCI, EC50 (converted); cited from earlier work
[8] = in vitro; assay type: cell-based; details: human; 4–5 days; read-out: CC50, HepG2
[9] = test system: Human rhinovirus (7 serotypes); test: Human rhinovirus cytopathic inhibition in HeLa cells; assay type: cell-based; details: Rhinovirus A, 120 h, cytopathic inhibition over 5 days
[10] = test system: DENV2-NGC replicon L512V; assay type: cell-based; details: electroporated BHK-21; 2 days
[11] = test system: DENV2-NGC replicon E802D; assay type: cell-based; details: electroporated BHK-21; 2 days
[12] = test system: DENV2-NGC EGFP Replicon in BHK21; test: Stable BHK21 DENV2-NGC EGFP replicon assay; assay type: cell-based; details: Dengue virus, DENV2, BHK-21; 48 hr
[13] = test system: DENV1, strain MY97-10245; details: A549; 48 hr; read-out: DENV1 HCI, EC50; cited from earlier work
[14] = test system: Control DENV2-NGC EGFP-replicon cells passaged in DMSO; test: Control DENV2-NGC EGFP-replicon cells passaged in DMSO; assay type: cell-based; details: Dengue virus, DENV2, 48 h; 2 days
[15] = target: T1, DENV4 FL NS5 L512V (Dengue virus type 4, UniProt P09866, L2999V); assay type: binding; details: 50 µM compound; for Protein melting temperature, Tm, DENV4 FL NS5 L512V: DMSO 36.5
T1 construct: Recombinant DENV2 (A, C) and DENV4 (B, D) FL NS5 proteins bearing single or double amino acid changes; made in house

[16] = test system: DENV2-NGC virus L512V/E802D; assay type: cell-based; details: A549, MOI = 0.2; 48 hr; plaque assay
[17] = human, HuH-7 (DENV2 replicon cells), 48 hr, ATP levels
[18] = human, 2 days, read-out: CC50, A549
[19] = Dengue virus, DENV2, Huh-7, 48 h
[20] = hamster, 2 days, read-out: CC50, BHK-21

T1 sequence (P09866 2488-3387 L2999V): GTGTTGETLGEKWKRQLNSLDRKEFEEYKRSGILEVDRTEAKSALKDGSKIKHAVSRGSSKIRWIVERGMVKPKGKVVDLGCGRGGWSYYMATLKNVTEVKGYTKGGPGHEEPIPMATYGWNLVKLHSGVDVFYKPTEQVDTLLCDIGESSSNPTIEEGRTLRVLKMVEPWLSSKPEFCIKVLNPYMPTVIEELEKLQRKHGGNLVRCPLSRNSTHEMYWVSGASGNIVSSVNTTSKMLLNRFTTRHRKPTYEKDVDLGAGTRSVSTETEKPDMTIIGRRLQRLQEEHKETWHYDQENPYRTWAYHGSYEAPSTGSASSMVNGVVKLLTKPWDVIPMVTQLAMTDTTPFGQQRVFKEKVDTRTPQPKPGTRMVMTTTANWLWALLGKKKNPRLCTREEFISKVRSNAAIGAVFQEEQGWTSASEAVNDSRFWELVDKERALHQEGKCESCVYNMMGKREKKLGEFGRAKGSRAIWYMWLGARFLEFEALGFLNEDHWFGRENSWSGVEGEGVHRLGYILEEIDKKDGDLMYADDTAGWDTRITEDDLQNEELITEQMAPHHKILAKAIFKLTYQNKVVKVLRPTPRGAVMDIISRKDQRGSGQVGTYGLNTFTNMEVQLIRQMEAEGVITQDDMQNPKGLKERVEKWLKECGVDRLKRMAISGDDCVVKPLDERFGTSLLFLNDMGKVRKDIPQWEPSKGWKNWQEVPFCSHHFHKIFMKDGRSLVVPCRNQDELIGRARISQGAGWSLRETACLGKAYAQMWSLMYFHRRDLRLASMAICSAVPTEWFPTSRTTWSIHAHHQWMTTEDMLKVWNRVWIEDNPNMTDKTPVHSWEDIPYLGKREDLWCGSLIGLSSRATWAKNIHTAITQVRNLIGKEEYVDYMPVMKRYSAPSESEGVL
Sequence of DENV4 RdRp (P09866 2753-3387): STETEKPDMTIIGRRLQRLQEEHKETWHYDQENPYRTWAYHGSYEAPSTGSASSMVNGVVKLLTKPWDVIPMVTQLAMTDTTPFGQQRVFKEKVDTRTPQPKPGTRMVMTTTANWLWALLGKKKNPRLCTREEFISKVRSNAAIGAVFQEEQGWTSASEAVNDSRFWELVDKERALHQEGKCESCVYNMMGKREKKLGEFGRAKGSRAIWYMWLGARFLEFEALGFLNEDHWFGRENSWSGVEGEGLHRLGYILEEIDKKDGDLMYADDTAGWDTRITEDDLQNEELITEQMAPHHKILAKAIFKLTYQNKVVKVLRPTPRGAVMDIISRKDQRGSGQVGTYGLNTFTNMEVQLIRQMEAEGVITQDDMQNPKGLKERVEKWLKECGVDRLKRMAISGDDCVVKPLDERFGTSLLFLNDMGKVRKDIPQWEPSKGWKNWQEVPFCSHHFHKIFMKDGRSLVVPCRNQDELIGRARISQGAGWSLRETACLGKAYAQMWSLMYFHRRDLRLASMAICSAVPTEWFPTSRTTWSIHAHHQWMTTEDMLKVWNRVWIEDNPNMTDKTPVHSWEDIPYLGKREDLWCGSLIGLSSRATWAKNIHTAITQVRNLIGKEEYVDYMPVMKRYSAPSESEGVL

Compound | EC50 [1] [µM] | CC50 [2, 17] [µM] | CC50 [2, 18] [µM] | EC50 [3, 19] [µM] | EC50 [4] [µM] | SPR % Rmax [5] [%] | EC50 [6] [µM] | EC50 [7] [µM] | CC50 [8] [µM] | EC50 [9] [µM] | EC50 [10] [µM] | CC50 [2, 20] [µM] | EC50 [11] [µM] | EC50 [12] [µM] | EC50 [13] [µM] | EC50 [14] [µM] | Tm change compared to DMSO control, DENV4 FL NS5 L512V [15] [°C] | Protein melting temperature, Tm, DENV4 FL NS5 L512V [15] [°C] | EC50 ([3]; 48 hr) [µM] | EC50 [16] [µM]
COc1cccc(S(=O)(=O)NC(=O)c2cc(-c3ccc(C#CCO)s3)c(OC)cc2C)c1 [Compound 26i] | 12 to 15 | > 50 | > 50 | 12.1 | 15.4 |  |  |  |  |  |  |  |  |  |  |  |  |  |  | 
COc1cc(OC)c(-c2ccc(C#CCO)s2)cc1C(=O)NS(=O)(=O)c1cccc2cccnc12 [Compound 29] | 1 to 5 | > 50 | > 50 | ~2 | 2.8 | 20.9 | 3.8 | 14.1 | > 50 | > 50 | 32.3 | > 50 | 21.4 | 5.8 | 6.3 ± 0.9 | 3.55 | 1.5 | 38 | 1.9 ± 0.2 | 7.01
COc1cccc(S(=O)(=O)NC(=O)c2cc(-c3ccc(C#CCO)s3)c(OC)cc2OC)c1 [Compound 27] | 1 to 5 | > 100 | > 50 | 3.9 ± 0.62 | 2.3 | 66.8 | 1.8 ± 0.5 | 2.3 | > 50 | > 50 | 25.9 | > 50 | 12.8 | 3.5 | 1.8 ± 0.1 | 2.46 | 0 | 36.5 |  | 2.32
